# Assay results as given in US6525040B1, “Cyclic organoselenium compounds, their preparation and their uses” (Oxis Isle of Man, Limited, priority 1996, dated 2003).
# How the values were obtained:
# [1] = even in the presence of an excess of glutathione GSH; cited from earlier work
# [2] = Glutathione peroxidase activity (NADPH-coupled, GSH/glutathione disulphide reductase); type: biochemical; conditions: compound 20 μM, pH = 7.3, 37° C., [GSH] = 2 mM; for Glutathione peroxidase activity, H2O2: substrate H2O2; for Glutathione peroxidase activity, t-BuOOH: substrate t-BuOOH
# Method: The glutathione peroxidase activity is determined by using a 50 mM HEPES buffer, pH=7.3 (at 37° C.), containing 0.2 mM DTPA, 0.144 mM NADPH, 2.2 mM reduced glutathione (GSH) and 1.1 U/ml glutathione disulphide reductase. This buffer further contains 110 U/ml catalase when hydrogen peroxide is not used as substrate.
# To 1.5 ml of the buffer described above, are added 100 μl of an ethanolic stock solution of the compound tested or 100 μl of absolute ethanol (blank). Each compound is tested at a final concentration of 20 μM. The reaction medium is equilibrated for 2 minutes at 37° C. Then 50 μl of 6.6 mM tert-butyl hydroperoxide (t-BuOOH) in ultrapure water, or 3.3 mM hydrogen peroxide (H2O2) in ultrapure water are added. The glutathione peroxidase activity is determined at 37° C. by measuring the decrease of absorbance at 340 nm for 5 minutes. Said activity or initial enzymatic rate is proportional to the slope of the variation of absorbance with time.
# The catalytic activity of oxygen reduction of the compounds tested corresponds to the rate of consum.p.ion of NADPH in the absence of hydroperoxide.
# They are expressed in nmoles of hydroperoxide reduced per minute.
# [3] = tested on: TNF-α-induced interleukin 8 release by endothelial cells (HUVEC); assay: Inhibition of the TNF-α-induced release of interleukin 8 by endothelial cells (ELISA); type: cell-based; conditions: compound 10 μM, TNF-α 1 ng/ml, 3 h 30 min incubation, human endothelial cells, read-out: Inhibition of TNF-α-induced IL-8 production in the culture medium
# Method: Human endothelial cells are grown at 37° C. in multi-well plates under a water-saturated atmosphere constituted of a gaseous mixture of 95% air and 5% CO2. Their culture medium is constituted by a medium M 199 pH=7.4 containing 20% foetal calf serum, 2 mM L-glutamine, 100 U/ml penicillin, 100 μg/ml streptomycin and 1% by volume of a medium supplement containing heparin and a growth factor for these cells.
# When the cells are close to confluence, they are incubated for one hour in the presence or in the absence of one of the following compounds: BXT-51097 or BXT-51103. Each one of these compounds is incorporated at 10 μM in the culture medium containing 2% foetal calf serum, everything else being equal. After removal of the culture medium, the cells are incubated in the presence or in the absence (control) of TNF-α, at 1 ng/ml, in the same culture medium as before. In the case of cells pre-treated with a compound of the invention, the medium further contains the same compound at 10 μM. After three hours and thirty minutes of incubation, the interleukin 8 (IL-8) released into the culture medium is determined by ELISA.
# [4] = tested on: TNF-α-induced P-selectin expression by endothelial cells (HUVEC); assay: Inhibition of TNF-α-induced P-selectin expression by endothelial cells (cell ELISA); type: cell-based; conditions: compound 10 μM; TNF-α 1 ng/ml; 3 h 30 min incubation; human endothelial cells
# Method: (§1) Human endothelial cells are grown under the same conditions as those described in Example 6.
# (§2) When the cells are close to confluence, they are incubated for one hour in the presence or in the absence of one of the following compounds: BXT-51097 or BXT-51103. Each one of these compounds is incorporated at 10 μM in the culture medium containing 2% foetal calf serum, everything else being equal. After the removal of the culture medium, the cells are incubated in the presence or in the absence (control) of TNF-α, at 1 ng/ml, in the same culture medium as before. In the case of cells pre-treated with a compound, the medium further contains the same compound at 10 μM. After three hours and thirty minutes of incubation, the cells are washed with PBS buffer and they are fixed with 2% formaldehyde in the same buffer. The P- and E-selectin expressions on the cells are then measured by an ELISA determination by successively incubating the cells in the presence of a mouse monoclonal antibody, anti-P-selectin and anti-E-selectin respectively, and a rabbit anti-mouse anti-antibody labelled with alkaline phosphatase. The quantification is carried out upon the addition of para-nitrophenyl phosphate whose hydrolysis is followed at 405 nm.
# [5] = tested on: TNF-α-induced E-selectin expression by endothelial cells (HUVEC); assay: Inhibition of TNF-α-induced E-selectin expression by endothelial cells (cell ELISA); type: cell-based; conditions: compound 10 μM; TNF-α 1 ng/ml; 3 h 30 min incubation; human endothelial cells
# Method: as §1, §2
Compound,Solubility in water [1],"Glutathione peroxidase activity, H2O2 [2]","Glutathione peroxidase activity, t-BuOOH [2]",inhibition at 10 µM [3] [%],Inhibition of TNF-α-induced P-selectin expression [4],Inhibition of TNF-α-induced E-selectin expression [5]
"O=c1c2ccccc2[se]n1-c1ccccc1 [ebselen, 2-phenyl-1,2-benzisoselenazolin-3-one]",very little soluble in water,–,–,–,–,–
"CC1(C)CN[Se]c2sccc21 [BXT-51097, 4,4-Dimethyl-thieno-[3,2-e]-isoselenazine]",–,39.8 nmoles of hydroperoxide reduced/min,11.4 nmoles of hydroperoxide reduced/min,≥ 85,totally inhibited,totally inhibited
"CC1(C)CN[Se]c2ccsc21 [BXT-51103, 4,4-Dimethyl-thieno-[2,3-e]-isoselenazine]",–,34.9 nmoles of hydroperoxide reduced/min,15.5 nmoles of hydroperoxide reduced/min,≥ 85,totally inhibited,totally inhibited
"CC1(C)CN[Se](=O)c2sccc21 (stereo not drawn) [BXT-51100, 4,4-Dimethyl-thieno-[3,2-e]-isoselenazine-1-oxide]",–,37.1 nmoles of hydroperoxide reduced/min,10.1 nmoles of hydroperoxide reduced/min,–,–,–
"CC1(C)CN[Se](=O)c2ccsc21 (stereo not drawn) [BXT-51105, 4,4-Dimethyl-thieno-[23-e]-isoselenazine-1-oxide]",–,35.7 nmoles of hydroperoxide reduced/min,13.9 nmoles of hydroperoxide reduced/min,–,–,–
